Results published in patent publication US20210395327A1, “Growth Hormone-Releasing Hormone Antagonists and Uses Thereof” (United States Government As Represented By The Department …, priority 2019, published 2021).
Non-standard residues stand in square brackets, D forms with d. Residues, ends and D or L forms follow the SMILES beside them. *: point of attachment. Phenylacetyl(2,3,4,5,6-F5) = O=C(Cc1c(F)c(F)c(F)c(F)c1F)*; Phe(F5) = N[C@@H](Cc1c(F)c(F)c(F)c(F)c1F)C(=O)O; Phe(4-Cl) = N[C@@H](Cc1ccc(Cl)cc1)C(=O)O; hArg = N=C(N)NCCCC[C@H](N)C(=O)O; 12Ado = NCCCCCCCCCCCC(=O)O; Nle = CCCC[C@H](N)C(=O)O; Abu = CC[C@H](N)C(=O)O

Tests used:
[1] = tested on: KATOIII stomach cancer cells; test: In vitro cell viability, KATOIII; assay type: cell-based, human; conditions: antagonist 5 μM for 72 h, cell proliferation assay; MIA602 = 1
Summary of the method: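 Cells grown to ~60% confluence, serum-starved 24 h in 0.5% FBS, then treated with antagonists at 1, 2.5 or 5 μM or vehicle (0.1% DMSO) in quintuplicate for 72 h, medium replaced every 48 h. Viability read by MTS-type CellTiter 96 AQueous One assay; expressed as inhibitory potency relative to MIA602.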

[2] = tested on: PANC-1 pancreatic cancer cells; test: In vitro cell viability, PANC-1; assay type: cell-based, human; conditions: antagonist 5 μM for 72 h, cell proliferation assay; MIA602 = 1
Experimental: (§1) The inhibitory effects of the various synthesized GHRH antagonists were tested in cell proliferation assays in various human cancer cell lines including stomach cancer (KATOIII, N87), colon cancer (HT-29), urothelial cancer (J82, RT4), pancreatic cancer (PANC-1, CFPAC-1), prostatic cancer (PC3), breast cancer (MX-1, HCC1806), ovarian cancer (SK-OV-3, OVCAR-3) and lung cancer (HCC827, H460).
(§2) Cell culture. Human cancer cell lines including pancreatic (PANC-1 and CFPAC-1), lung (HCC827 and H460), stomach (NCI-N87 and KATOIII), urothelial (J82, RT4), prostatic (PC3), breast (MX-1 and HCC 1806), colorectal (HT-29), and ovarian (SK-OV-3 and OVCAR-3) were obtained from the American Type Culture Collection (ATCC) and cultured at 37° C. in a humidified 95% air/5% CO2 atmosphere in the medium recommended by ATCC.
(§3) In vitro cell viability. Cell viability was analyzed as follows: cancer cells including pancreatic (PANC-1 and CFPAC-1), lung (HCC827 and H460), stomach (NCI-N87 and KATOIII), urothelial (J82, RT4), prostatic (PC3) and breast (MX-1 and HCC 1806), colorectal (HT-29) and ovarian (SK-OV-3 and OVCAR-3) were grown on 96 well plates to ˜60% confluence, the cells were starved for 24 h in culture medium containing 0.5% FBS. Cells were then treated with GHRH antagonists MIA602 AVR compounds at concentrations of 1, 2.5 or 5 μM, or vehicle (0.1% DMSO) in quintuplicates for 72 hours. The medium was replaced every 48 hours. Cell viability was measured using CellTiter 96 aqueous one solution kit (Promega). Inhibitory effects of tested AVR compounds in comparison to that of MIA602 are presented as inhibitory potency.
(§4) Inhibitory effects of selected AVR compounds in comparison to that of MIA602 are presented as inhibitory potency (e.g., percentage of inhibition). […] The cell lines tested including lung cancer HCC827 (FIG. 2A), pancreatic cancer CFPAC-1 (FIG. 2B), stomach cancer N87 (FIG. 2C), colon cancer HT-29 (FIG. 2D), breast cancers MX-1 and HCC1806 (FIGS. 2 E, F). Based on the results of cell proliferation assay after cancer cells were treated with antagonist at concentration of 5 μM for 72H, the relative inhibitory potency of AVR antagonists in comparison to MIA-602 is summarized in Table 3 A and B. Over 60 AVR compounds were tested in 12 cancer cell lines.

[3] = tested on: J82 urothelial cancer cells; test: In vitro cell viability, J82; assay type: cell-based, human; conditions: antagonist 5 μM for 72 h, cell proliferation assay; MIA602 = 1
Experimental: as §1, §2, §3, §4

MX-1 breast cancer cells = test: In vitro cell viability, MX-1; assay type: cell-based, human; conditions: Table 3B; 5 μM for 72 H; MIA-602 = 1
Summary of the method: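 Human tumour lines were exposed to GHRH antagonist at 1, 2.5 or 5 μM for 72 h with medium refreshed every 48 h, after 24 h in low-serum (0.5% FBS) medium. Cell viability (CellTiter 96) was expressed as inhibition relative to MIA602.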

[4] = tested on: pancreatic cancer PANC-1 xenograft; test: Xenograft tumor growth in nude mice, PANC-1; assay type: in vivo; conditions: Table 4A, Pancreatic Ca PANC-1, 7 weeks; for % Inhibition: vs control
Experimental: (§5) The peptides' activity was compared with GHRH antagonist MIA-602. All statistical analyzses were performed from comparing GHRA antagonists to non-treated tumor (control).
(§6) Peptides and chemicals. GHRH antagonists MIA-602 and AVR-GHRH antagonists (see Table 2 above) were synthesized by solid phase methods and purified by HPLC. The peptides were dissolved in DMSO and further diluted in 10% 1,2-propanediol. The final concentration of peptides was 50 µg/ml in 10% 1,2-propanediol containing 0.1% of DMSO.
as §2, with “(NCI-N87), prostate” for “(NCI-N87 and KATOIII), urothelial (J82, RT4), prostatic”, “brest” for “breast”, “HCC-1806),” for “HCC 1806),”
(§7) Xenograft models of human cancers in nude mice. Female athymic (NCr nu/nu) nude mice, 5- to 6-weeks-old, obtained from the Envigo labs (Tampa, Fla.), were housed in laminar airflow cabinets under pathogen-free conditions with a 12-h light/12-h dark schedule, and were fed autoclaved standard chow and water. To generate mice with xenografted tumors, tumor xenografts were initiated by subcutaneous (s.c.) injection of 107 human cancer cells into female nude mice. After about 4 weeks the resulting tumors were dissected and collected after removing necrosis tissues. The tumors were then cut into particles with size of 3 mm3 and transplanted s.c. by trocar needle into experimental animals. When tumors grew to the size of 50-60 mm3 (by volume), mice were randomized into groups and treated daily for 4-8 weeks by subcutaneous administration of 5 μg of GHRH antagonists MIA-602 or AVR-compounds (2-10 μg as indicated), or vehicle solutions (0.1% DMSO in 10% 1,2-propanediol) respectively. Tumor sizes were measured weekly.
(§8) Statistical analysis. One-way ANOVA followed by Bonferroni comparison were performed. Data are expressed as Mean±SEM. To determine statistical significance between animal groups, two-tailed Student's t-test was conducted. Differences were considered significant when p<0.05.
(§9) Results. […] FIG. 1A-N represents in vivo inhibition of tumor growth during the treatment with GHRH antagonist MIA-602 and selected AVR antagonists in nude mice xenografted with various human tumors including pancreatic cancer PANC-1 (FIG. 1A) and CFPAC-1 (FIG. 1I); lung cancer HCC827 (FIGS. 1B, C) and H460 (FIG. 1H); stomach cancer N87 (FIGS. 1D-F); colon cancer HT-29 (FIG. 1G); breast cancer MX-1 and HCC-1806 (FIGS. 1J, K); ovarian cancer SK-OV-3 and OVACAR-3 (FIGS. 1 L, M) and prostate cancer PC3 (FIG. 1N). See also Table 5.

[5] = tested on: breast cancer MX-1 xenograft; test: Xenograft tumor growth in nude mice, MX-1; assay type: in vivo; conditions: Table 4J, Breast Ca MX-1, 4 weeks, 5 μg/day s.c.
Experimental: as §5, §6
as §2, with “(NCI-N87), prostate” for “(NCI-N87 and KATOIII), urothelial (J82, RT4), prostatic”, “brest” for “breast”, “HCC-1806),” for “HCC 1806),”
as §7, §8, §9

[6] = tested on: ovarian cancer SK-OV-3 xenograft; test: Xenograft tumor growth in nude mice, SK-OV-3; assay type: in vivo; conditions: Table 4L, Ovarian Ca SK-OV-3, 7 weeks; for % Inhibition: vs control
Experimental: as §5, §6
as §2, with “(NCI-N87), prostate” for “(NCI-N87 and KATOIII), urothelial (J82, RT4), prostatic”, “brest” for “breast”, “HCC-1806),” for “HCC 1806),”
as §7, §8, §9

[7] = tested on: prostate cancer PC3 xenograft; test: Xenograft tumor growth in nude mice, PC3; assay type: in vivo; conditions: Table 4N, Prostate Ca PC3, 8 weeks, 5 μg/day s.c.
Experimental: as §5, §6
as §2, with “(NCI-N87), prostate” for “(NCI-N87 and KATOIII), urothelial (J82, RT4), prostatic”, “brest” for “breast”, “HCC-1806),” for “HCC 1806),”
as §7, §8, §9

SMILES | relative inhibitory potency in comparison to MIA-602, Stomach KATOIII [1] | relative inhibitory potency in comparison to MIA-602, Pancreatic Panc-1 [2] | relative inhibitory potency in comparison to MIA-602, Urothelial J82 [3] | In vitro relative inhibitory potency in comparison to MIA-602, MX-1 (MX-1 breast cancer cells) | Tumor Growth % ([4]; 2.5 μg/day s.c.) [%] | % Inhibition ([4]; 2.5 μg/day s.c.) [%] | Tumor Growth % ([4]; 5 μg/day s.c.) [%] | % Inhibition ([4]; 5 μg/day s.c.) [%] | Tumor Growth % ([4]; 10 μg/day s.c.) [%] | % Inhibition ([4]; 10 μg/day s.c.) [%] | Tumor Growth % [5] [%] | % Inhibition ([5]; vs control) [%] | Tumor Size (mm3) ([6]; 2.5 μg/day s.c.) | % Inhibition ([6]; 2.5 μg/day s.c.) [%] | Tumor Size (mm3) ([6]; 5 μg/day s.c.) | % Inhibition ([6]; 5 μg/day s.c.) [%] | Tumor Size (mm3) [7] [mm3] | % Inhibition ([7]; vs control) [%]
CCCC[C@H](NC(=O)[C@@H](NC(=O)[C@H](CC(=O)O)NC(=O)[C@H](CCC(N)=O)NC(=O)[C@H](CC(C)C)NC(=O)[C@H](CC(C)C)NC(=O)[C@H](CCCCN)NC(=O)[C@H](CCCNC(=N)N)NC(=O)[C@H](C)NC(=O)[C@H](CO)NC(=O)[C@H](CC(C)C)NC(=O)[C@H](CCC(N)=O)NC(=O)[C@H](CC)NC(=O)[C@H](CC(C)C)NC(=O)[C@@H](NC(=O)[C@H](CCCCN)NC(=O)[C@H](CCCNC(=N)N)NC(=O)[C@H](Cc1ccc(OC)cc1)NC(=O)[C@H](CCCCNC(=N)N)NC(=O)[C@H](C)NC(=O)[C@@H](NC(=O)[C@H](Cc1c(F)c(F)c(F)c(F)c1F)NC(=O)[C@@H](NC(=O)[C@H](C)NC(=O)[C@H](CC(=O)O)NC(=O)[C@@H](CCCNC(=N)N)NC(=O)[C@H](Cc1ccc(O)cc1)NC(=O)CCCCCCCCCCCNC(=O)Cc1c(F)c(F)c(F)c(F)c1F)[C@@H](C)CC)[C@@H](C)O)C(C)C)[C@@H](C)CC)C(=O)N[C@H](CCCNC(=N)N)C(=O)N[C@@H](CCCCNC(=N)N)C(=O)NC [AVR-235] ({Phenylacetyl(2,3,4,5,6-F5)-12Ado}-Y[dR]DAI[Phe(F5)]TA[hArg]Y(Me)RKVL[Abu]QLSARKLLQDI[Nle][dR][hArg]-NHMe) | 1.220 | 1.139 | 1.518 |  |  |  |  |  |  |  |  |  |  |  |  |  |  | 
CCCC[C@H](NC(=O)[C@@H](NC(=O)[C@H](CC(=O)O)NC(=O)[C@H](CCC(N)=O)NC(=O)[C@H](CC(C)C)NC(=O)[C@H](CC(C)C)NC(=O)[C@H](CCCCN)NC(=O)[C@H](CCCNC(=N)N)NC(=O)[C@H](C)NC(=O)[C@H](CO)NC(=O)[C@H](CC(C)C)NC(=O)[C@H](CCC(N)=O)NC(=O)[C@H](CC)NC(=O)[C@H](CC(C)C)NC(=O)[C@@H](NC(=O)[C@H](CCCCN)NC(=O)[C@H](CCCNC(=N)N)NC(=O)[C@H](Cc1c(F)c(F)c(F)c(F)c1F)NC(=O)[C@H](CCCCNC(=N)N)NC(=O)[C@H](C)NC(=O)[C@@H](NC(=O)[C@H](Cc1ccc(Cl)cc1)NC(=O)[C@@H](NC(=O)[C@H](C)NC(=O)[C@H](CC(=O)O)NC(=O)[C@@H](CCCNC(=N)N)NC(=O)[C@H](Cc1ccc(O)cc1)NC(=O)CCCCCCCCCCCNC(=O)Cc1c(F)c(F)c(F)c(F)c1F)[C@@H](C)CC)[C@@H](C)O)C(C)C)[C@@H](C)CC)C(=O)N[C@H](CCCNC(=N)N)C(=O)N[C@@H](CCCCNC(=N)N)C(=O)NCCCCCCCCCCCC(N)=O [AVR-353, 5FPhAC-Ada-Tyr-DArg-Asp-Ala-Ile-Cpa-Thr-Ala-Har-5FPhe-Arg-Lys-Val-Leu-Abu-Gln-Leu-Ser-Ala-Arg-Lys-Leu-Leu-Gln-Asp-Ile-Nle-DArg-Har-Ada-NH2] ({Phenylacetyl(2,3,4,5,6-F5)-12Ado}-Y[dR]DAI[Phe(4-Cl)]TA[hArg][Phe(F5)]RKVL[Abu]QLSARKLLQDI[Nle][dR][hArg][12Ado]-NH2) |  |  |  | 2.001 | 1482.8 | 44.5 | 1257.3 | 52.9 | 1005.1 | 62.4 | 774.2 | 30.5 | 1056.0 | 19.1 | 910.7 | 30.9 | 496.7 | 39.9
